Assay results published in the NIST ThermoML archive (doi:10.1016/j.jct.2016.04.014).

Test: xn = mol fraction of the nth substance listed
Conditions: Liquid, Vibrating tube method

CCCCCCCC [octane] + CCO
mass density [kg/m3]
Conditions	100 kPa	500 kPa	5000 kPa	10000 kPa	15000 kPa	20000 kPa	25000 kPa	30000 kPa	35000 kPa	40000 kPa
293.15 K, x1 = 0.2492	743.9	744.3	748.2	752.3	756.2	759.9	763.4	766.8	770	773.2
293.15 K, x1 = 0.4999	722.3	722.6	726.5	730.6	734.4	738.1	741.6	744.9	748.1	751.2
293.15 K, x1 = 0.7503	709.6	709.9	713.7	717.7	721.5	725.1	728.6	731.9	735	738.1
303.15 K, x1 = 0.2492	735.3	735.7	739.8	744.2	748.3	752.2	755.9	759.5	762.9	766.2
303.15 K, x1 = 0.4999	713.7	714.1	718.3	722.6	726.7	730.6	734.2	737.7	741.1	744.3
303.15 K, x1 = 0.7503	701.2	701.5	705.6	709.9	713.9	717.8	721.4	724.9	728.2	731.4
313.15 K, x1 = 0.2492	726.5	726.9	731.3	736	740.4	744.5	748.4	752.1	755.7	759.1
313.15 K, x1 = 0.4999	705	705.4	709.8	714.5	718.8	722.9	726.8	730.5	734	737.4
313.15 K, x1 = 0.7503	692.6	693	697.4	702	706.3	710.3	714.1	717.8	721.2	724.6
323.15 K, x1 = 0.2492	717.4	717.9	722.6	727.6	732.2	736.6	740.7	744.6	748.4	752
323.15 K, x1 = 0.4999	696	696.4	701.2	706.1	710.8	715.1	719.2	723.1	726.8	730.4
323.15 K, x1 = 0.7503	683.8	684.2	688.9	693.8	698.4	702.7	706.8	710.6	714.2	717.8
333.15 K, x1 = 0.2492	708.2	708.6	713.7	719.1	724	728.6	733	737.1	741	744.8
333.15 K, x1 = 0.4999	686.8	687.3	692.4	697.7	702.7	707.3	711.6	715.7	719.6	723.4
333.15 K, x1 = 0.7503	674.8	675.3	680.4	685.6	690.5	695.1	699.3	703.4	707.2	710.9
353.15 K, x1 = 0.2492	–	689	695	701.1	706.8	712	716.9	721.5	725.8	730
353.15 K, x1 = 0.4999	–	667.9	674	680.2	685.8	691.1	695.9	700.5	704.8	709
353.15 K, x1 = 0.7503	–	656.6	662.6	668.7	674.3	679.5	684.3	688.7	693	697.1
373.15 K, x1 = 0.2492	–	667.6	674.8	682	688.6	694.6	700.1	705.2	710	714.6
373.15 K, x1 = 0.4999	–	647.2	654.4	661.7	668.3	674.3	679.8	684.9	689.7	694.3
373.15 K, x1 = 0.7503	–	637	644.1	651.2	657.7	663.6	669	674	678.7	683.2
